This is an account of results in BindingDB's records for doi:10.7270/Q2TX3CTT (Broad Institute, 2010).

Molecules are shown by their SMILES. Structures can show the parent of a compound that is named as a salt.

Chain of Glycogen synthase kinase-3 beta (P49841 whole entry): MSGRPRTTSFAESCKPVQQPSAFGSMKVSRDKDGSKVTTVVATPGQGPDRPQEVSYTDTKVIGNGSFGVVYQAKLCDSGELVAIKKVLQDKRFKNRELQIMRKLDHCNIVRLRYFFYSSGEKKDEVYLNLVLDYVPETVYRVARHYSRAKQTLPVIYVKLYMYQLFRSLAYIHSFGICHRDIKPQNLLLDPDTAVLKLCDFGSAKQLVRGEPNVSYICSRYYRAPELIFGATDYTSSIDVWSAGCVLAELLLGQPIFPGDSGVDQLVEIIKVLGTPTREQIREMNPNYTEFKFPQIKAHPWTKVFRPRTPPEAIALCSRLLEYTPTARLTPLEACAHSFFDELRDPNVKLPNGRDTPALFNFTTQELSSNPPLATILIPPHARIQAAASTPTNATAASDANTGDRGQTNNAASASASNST

This assay concerns the target Glycogen synthase kinase-3 beta (Homo sapiens, UniProt P49841). The assay can be described thus: concentration-response blocking of human GSK3B – biochemical, luminescence, cell-free homogeneous, retest, dose response (AID 434954).
`COCCNc1nc(SC)nc2sc3c(c12)CCN(C)C3` [N-(2-methoxyethyl)-7-methyl-2-methylsulfanyl-6,8-dihydro-5H-pyrido[4,5]thieno[1,2-c]pyrimidin-4-amine] returned an EC50 of 198 µM. The same measure for `CC(C)(C)c1ccc(C=Nn2cnnc2)cc1` [MLS000660819]: above 300 µM; for `O=C1Nc2ccccc2C1=NN1CCOCC1` [3-(morpholin-4-ylamino)indol-2-one]: above 300 µM.

Compound `CCCCn1nc(NC(=O)c2cccs2)c2cc3ccccc3nc21` [MLS000081455] yielded an EC50 above 300 µM. The same measure for `CCOC(=O)Cc1csc(NC(=O)c2c(O)c3ccccc3n(CCC(C)C)c2=O)n1` [SMR000284490]: above 300 µM. As for `O=C(CN(Cc1cccs1)C(=O)CCC(=O)Nc1nccs1)NCc1ccccc1` [MLS000551058], the figure is above 300 µM. On to `COc1cccc(N=Nc2c(N)[nH][nH]c2=O)c1` [SMR000231776], for which a half-maximal effect (EC50) was put at 19.9 µM.

Consider `COc1ccc(CN(CC(=O)NCc2ccc(F)cc2)C(=O)CCC(=O)Nc2ccccn2)cc1` [N-[(4-Fluoro-benzylcarbamoyl)-methyl]-N-(4-methoxy-benzyl)-N'-pyridin-2-yl-succinamide], for which the EC50 is above 300 µM. With `CCCCCCCCCCCCC(=O)CCCCC(=O)O` [MLS001049131], the half-maximal effective concentration (EC50) is above 300 µM. As for `CCn1c(SCC(=O)Nc2ccccc2)nnc1C1CCCCC1`, the figure is above 300 µM; as for `Cc1onc(-c2ccccc2Cl)c1C(=O)NNC(=O)c1ccc(F)cc1` [MLS001223650], above 300 µM.

In the case of `O=C1Nc2ccccc2/C1=N/c1cccc([N+](=O)[O-])c1` [MLS001194693], the EC50 is above 300 µM. As to `CCOC(=O)c1nnn(-c2nonc2N)c1-c1cccs1` [1-(4-amino-1,2,5-oxadiazol-3-yl)-5-thiophen-2-yl-4-triazolecarboxylic acid ethyl ester], a half-maximal effect (EC50) was put at 11.7 µM. As for `CC(NC(=O)/C=C/c1ccco1)c1nc2ccccc2n1Cc1ccccc1F` (stereo unspecified), the figure is above 300 µM.

The compound `CCCCc1cc(=O)oc2c(CN(C)C)c(O)ccc12` [4-butyl-8-[(dimethylamino)methyl]-7-hydroxy-1-benzopyran-2-one] displayed an EC50 above 300 µM.

Consider `CN1CCc2c(sc(NC(=O)Cc3ccccc3)c2C(N)=O)C1` [MLS000879155], for which the EC50 was above 300 µM. As for `COc1cc(C(=O)Nc2cccc(-c3nc4ncccc4o3)c2C)cc(OC)c1OC` [MLS000039714], the figure is above 300 µM. `Cc1c(C(=O)O)sc2ncnc(N3CCCCC3C)c12` (stereo unspecified) [5-methyl-4-(2-methyl-1-piperidinyl)thieno[2,3-d]pyrimidine-6-carboxylic acid] showed an EC50 above 300 µM.

With `COc1ccc(-c2ccc3c(N)c(C(=O)c4cccc(OC)c4)sc3n2)cc1` [SMR000160395], the EC50 was above 300 µM. As for `COc1ccc(CN(CC(=O)NCc2ccccc2)C(=O)CCC(=O)Nc2ccccn2)cc1`, the figure is above 300 µM; as for `CCOC(=O)c1ccc2c(c1)[n+](CC)c(/C=C/N(C)c1ccccc1)n2CC` [MLS000561766], above 300 µM; as for `Nc1c(C(=O)c2ccccc2)sc(Nc2ccccc2)c1S(=O)(=O)c1ccccc1` [SMR000115215], above 300 µM. The same measure for `Cc1cc(NC(=O)CCN2CCC(C)CC2)ccc1Br` [N-(4-bromo-3-methylphenyl)-3-(4-methyl-1-piperidinyl)propanamide;hydrochloride]: above 300 µM; for `CCOC(=O)C1C(=CN2CCSCC2)NC(=O)NC1c1cc(C)ccc1C` (stereo unspecified) [MLS000052412]: above 300 µM. As for `COCCCNc1nc(N)c([N+](=O)[O-])c(Nc2cc(OC)ccc2OC)n1` [N4-(2,5-dimethoxyphenyl)-N2-(3-methoxypropyl)-5-nitro-pyrimidine-2,4,6-triamine], the figure is 0.742 µM; as for `CCSc1nc(N)c2c3c(sc2n1)CN(C)CC3` [MLS000082600], above 300 µM. In turn, `CC(C)(C)C(=O)COC(=O)c1ccc(O)cc1` showed an EC50 above 300 µM. As for `O=C(/C=C/c1ccc2ccccc2c1)c1ccoc1` [SMR000179251], the figure is above 300 µM. In turn, `COc1cccc2cc(CC(=O)c3cc(C)ccc3C)c(=O)oc12` [MLS001198676] showed an EC50 above 300 µM. `CCCCOc1ccc(/C=C/C(=O)OCC(=O)N2CC(=O)Nc3ccccc32)cc1OCC` [[2-oxidanylidene-2-(3-oxidanylidene-2,4-dihydroquinoxalin-1-yl)ethyl] (E)-3-(4-butoxy-3-ethoxy-phenyl)prop-2-enoate] registered an EC50 above 300 µM. The same measure for `Cn1nnnc1Sc1c(Cl)cccc1[N+](=O)[O-]` [5-({2-chloro-6-nitrophenyl}sulfanyl)-1-methyl-1H-tetraazole]: above 300 µM; for `COc1ccc(-c2nn(-c3ccccc3)cc2C=Nn2c(O)csc2=S)cc1` [MLS000558856]: above 300 µM. As for `Cc1c(O)ccc2c(-c3ccccc3)cc(=O)oc12` [7-hydroxy-8-methyl-4-phenyl-1-benzopyran-2-one], the figure is above 300 µM. As to `COc1ccc(Nc2nc(N)nc(CSc3nnc(C)s3)n2)cc1` [MLS000527270], the EC50 was found to be 82 µM. The same measure for `CCN(CC)CCN1C(=O)C(=O)C(C(=O)c2ccc(S(=O)(=O)N3CCOCC3)cc2)C1c1ccccc1` (stereo unspecified) [(4E)-1-[2-(diethylamino)ethyl]-4-[hydroxy-[4-(4-morpholinylsulfonyl)phenyl]methylidene]-5-phenylpyrrolidine-2,3-dione]: above 300 µM. The same measure for `COc1cc([CH+][N-]NC(=O)COc2ccc([N+](=O)[O-])cc2)ccc1OCC(=O)N1CCOCC1` [N-[[3-methoxy-4-[2-(4-morpholinyl)-2-oxoethoxy]phenyl]methylideneamino]-2-(4-nitrophenoxy)acetamide]: above 300 µM; for `CC(C)N1CC(C(=O)Nc2ccc(Br)c(Cl)c2)CC1=O` (stereo unspecified) [N-(4-bromo-3-chlorophenyl)-5-oxo-1-propan-2-yl-3-pyrrolidinecarboxamide]: above 300 µM. Consider `CN(C)c1nc2c(N)ncnc2n1[C@H]1O[C@@H](CO)[C@H](O)[C@@H]1O` [MLS001181978], for which the EC50 was above 300 µM.

Compound `Nc1nonc1-n1nnc(C(=O)NN=Cc2ccccc2F)c1CN1CCc2ccccc21` [MLS001075096] gave an EC50 of 22.5 µM.

The compound `O=c1cc(-c2ccc(O)c(O)c2)oc2cc(O)cc(O)c12` [2-(3,4-dihydroxyphenyl)-5,7-dihydroxy-4H-chromen-4-one] yielded an EC50 of 3.81 µM. For `CN1C(=Cc2ccc(F)cc2)C(=O)N=C1N` [(5Z)-2-azanyl-5-[(4-fluorophenyl)methylidene]-1-methyl-imidazol-4-one], the EC50 was above 300 µM. Regarding `CCn1c(C=CN(C(C)=O)c2ccccc2)[n+](CC)c2cc(Cl)ccc21` [N-[(E)-2-(5-chloro-1,3-diethylbenzimidazol-1-ium-2-yl)ethenyl]-N-phenylacetamide;iodide], the EC50 was above 300 µM. As for `O=C(NN=Cc1ccc(Br)s1)c1cccnc1`, the figure is above 300 µM; as for `CCCOC(=O)c1ccc(O)cc1` [SMR000112070], above 300 µM. The same measure for `COc1ccc(COC(=O)c2cccc(S(=O)(=O)N3CCN(C(C)=O)CC3)c2)cc1` [(4-methoxyphenyl)methyl 3-(4-acetylpiperazin-1-yl)sulfonylbenzoate]: above 300 µM; for `CCN1CCN(c2c(C=O)c(Cl)nc3ccc(OC)cc23)CC1`: 5.67 µM; for `COc1cc(/C=C2/C(=O)NN(c3cccc(Cl)c3)C2=O)cc(Br)c1O` [MLS001210835]: 42.6 µM. The same measure for `COc1ccc(CNC(=O)CN(Cc2ccccc2)C(=O)CCC(=O)Nc2ccccn2)cc1`: 24.2 µM. In turn, `Cc1ccc(S(=O)(=O)N/C(=N/C(C)C(=O)O)c2ccccc2)cc1` (stereo unspecified) [MLS000108658] showed an EC50 above 300 µM. For `CC(=O)N1CCc2c(sc(NC(=O)CS(=O)(=O)c3ccc(F)cc3)c2C(N)=O)C1` [SMR000808580], the EC50 was above 300 µM. The same measure for `O=C1Nc2ccccc2C1C=Nc1ccc2c(c1)OCO2` (stereo unspecified) [(3Z)-3-[(1,3-benzodioxol-5-ylamino)methylidene]-1H-indol-2-one]: 11.4 µM; for `C=CCOC(=O)C1C(C)=Nc2ncnn2C1c1cccs1` (stereo unspecified): above 300 µM.

On to `COc1ccc(-c2nn(-c3ccccc3)cc2C(=O)O)cc1OC` [SMR000124387], for which the EC50 was above 300 µM.

Compound `Cc1noc2c1C(c1ccc(N(C)C)cc1)C1C(=O)CC(C)(C)CC1=N2` (stereo unspecified) [MLS000565136] displayed an EC50 above 300 µM. The same measure for `O=C(Oc1ccc(F)c(F)c1)c1ccc2c(=O)n3c(nc2c1)CCC3` [9-oxo-2,3-dihydro-1H-pyrrolo[2,1-b]quinazoline-6-carboxylic acid (3,4-difluorophenyl) ester]: above 300 µM. In turn, `O=C1C[C@@H](c2ccc(O)cc2)Oc2cc(O)ccc21` [7-Hydroxy-2-(4'-hydroxyphenyl)chroman-4-one] came in with an EC50 above 300 µM.

Turning to `CCCN(CCC)Cc1c(C(=O)NN=Cc2ccc(Br)cc2)nnn1-c1nonc1N` [1-(4-azanyl-1,2,5-oxadiazol-3-yl)-N-[(4-bromophenyl)methylideneamino]-5-[(dipropylamino)methyl]-1,2,3-triazole-4-carboxamide], the EC50 is above 300 µM.

Compound `Oc1ccc2oc3c(c2c1)CCCC3` registered an EC50 above 300 µM. As for `CCCc1cc(O)c2c(C)cc(=O)oc2c1` [5-hydroxy-4-methyl-7-propyl-1-benzopyran-2-one], the figure is above 300 µM.

Compound `c1ccc(-c2nc(NCc3cccnc3)c3ccccc3n2)cc1` returned an EC50 above 300 µM. On to `N#Cc1c2n(c3c(=O)[nH]cnc13)CCCC2`, for which the EC50 is 56.4 µM.

In the case of `CC1CN(C(=O)CCc2cc(C(C)(C)C)c(O)c(C(C)(C)C)c2)CC(C)O1` (stereo unspecified) [3-(3,5-ditert-butyl-4-hydroxyphenyl)-1-(2,6-dimethyl-4-morpholinyl)-1-propanone], the EC50 is above 300 µM.

`Cc1nc2nc(=O)c3c(n2[nH]1)NC1=C(C(=O)CC(C)(C)C1)C3c1ccc(F)cc1` (stereo unspecified) [MLS000084336]: the EC50 is above 300 µM. As to `CCOC(=O)C(C(=O)Nc1ccc(Cl)cc1Cl)C1=NC(C)(C)Cc2ccccc21` (stereo unspecified), the EC50 was above 300 µM.

`Cn1cc([CH+][N-]NC(=O)COc2ccccc2[N+](=O)[O-])c2ccccc21` [N-[(1-methylindol-3-yl)methylideneamino]-2-(2-nitrophenoxy)acetamide] registered an EC50 above 300 µM.

Take `Fc1ccccc1CNc1nc(-c2cccnc2)nc2ccccc12` [N-[(2-fluorophenyl)methyl]-2-pyridin-3-ylquinazolin-4-amine]: the EC50 was above 300 µM.

As usually defined, the EC50 is the midpoint of the concentration-response curve. Lower therefore signals greater potency.
